Here are results for 3 compounds from PMC9453727 (Cell Discovery, 2022).

Molecules are shown by their SMILES. A value given as a limit tells only on which side of the number the result lay.

In general, Papp refers to the rate of passage across a membrane or cell layer, normalised by area and donor concentration. Low readings indicate slow passage, high ones fast passage.

For series [1] the following is noted: in vivo, po; cited from earlier work.
The nature of the next series: in vitro. The settings on record: PAMPA.
Setting [2] is: pH 5, permeability class PAMPA-GIT.

Turning to `CC(C)(C)[C@H](NC(=O)C(F)(F)F)C(=O)N1C[C@H]2[C@@H]([C@H]1C(=O)N[C@H](C#N)C[C@@H]1CCNC1=O)C2(C)C` [nirmatrelvir], the half-life in series [1] is reported as ~ 2 h.
For `Cc1cc(=O)n(-c2ccccc2)n1C` [Antipyrine], the Papp in “in vitro” (setting [2]) is under 1 ×10⁻⁶ cm/s.
Regarding `NC(=O)N1c2ccccc2C=Cc2ccccc21` [Carbamazepine], the Papp in “in vitro” (pH 5, Papp PAMPA-GIT, pH 5.0) is 135 ×10⁻⁶ cm/s; in the series “in vitro” (setting [2]) it was over 20 ×10⁻⁶ cm/s; in “in vitro” (pH 6.2, Papp PAMPA-GIT, pH 6.2), 158 ×10⁻⁶ cm/s; in the series “in vitro” (pH 7.4, Papp PAMPA-GIT, pH 7.4), 160 ×10⁻⁶ cm/s.
